Measured values taken from publication PMC10091362 (Lab on a Chip, 2023).

Tests used:
[1] = biological target: beta-galactosidase (Escherichia coli, UniProt P00722); assay: droplet microfluidic steady-state Michaelis–Menten kinetics; assay type: biochemical
[2] = substrate: CC(=O)N1c2ccc(O)cc2Oc2cc(O)ccc21; assay: purified protein; conditions: H2O2 (co-substrate)

Sequence of beta-galactosidase (P00722 2-1024): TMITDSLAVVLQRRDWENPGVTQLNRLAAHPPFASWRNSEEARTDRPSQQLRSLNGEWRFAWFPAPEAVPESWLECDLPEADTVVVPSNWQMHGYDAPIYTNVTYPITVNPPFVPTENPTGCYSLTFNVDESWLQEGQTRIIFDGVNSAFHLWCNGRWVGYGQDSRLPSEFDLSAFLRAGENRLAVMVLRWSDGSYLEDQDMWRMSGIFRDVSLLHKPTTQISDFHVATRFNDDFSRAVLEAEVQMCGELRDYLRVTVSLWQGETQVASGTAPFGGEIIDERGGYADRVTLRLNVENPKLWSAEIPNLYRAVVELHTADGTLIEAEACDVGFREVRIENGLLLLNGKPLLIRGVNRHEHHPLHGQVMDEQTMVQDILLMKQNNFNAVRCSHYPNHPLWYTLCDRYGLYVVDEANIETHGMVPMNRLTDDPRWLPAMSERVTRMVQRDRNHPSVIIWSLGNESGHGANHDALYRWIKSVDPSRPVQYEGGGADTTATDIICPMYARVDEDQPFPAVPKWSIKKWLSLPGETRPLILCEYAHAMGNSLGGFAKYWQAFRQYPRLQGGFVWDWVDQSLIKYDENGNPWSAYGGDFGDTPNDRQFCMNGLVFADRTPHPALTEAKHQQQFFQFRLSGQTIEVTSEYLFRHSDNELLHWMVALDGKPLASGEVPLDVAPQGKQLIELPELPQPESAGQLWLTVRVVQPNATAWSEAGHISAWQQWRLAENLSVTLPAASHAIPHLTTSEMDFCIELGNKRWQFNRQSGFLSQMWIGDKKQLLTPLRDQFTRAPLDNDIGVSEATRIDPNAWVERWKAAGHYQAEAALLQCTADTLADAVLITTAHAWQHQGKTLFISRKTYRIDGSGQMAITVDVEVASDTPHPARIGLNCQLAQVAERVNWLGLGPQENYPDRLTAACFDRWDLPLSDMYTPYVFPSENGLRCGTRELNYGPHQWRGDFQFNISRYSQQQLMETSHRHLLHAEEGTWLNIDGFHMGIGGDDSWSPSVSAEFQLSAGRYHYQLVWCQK

Molecule | Km [1] [µM] | Km [2] [µM]
O=C1OC2(c3ccc(O[C@@H]4O[C@H](CO)[C@H](O)[C@H](O)[C@H]4O)cc3Oc3cc(O[C@@H]4O[C@H](CO)[C@H](O)[C@H](O)[C@H]4O)ccc32)c2ccccc21 [Fluorescein di-beta-D-galactopyranoside] | 19.8 ± 1.4 | 
O=c1ccc2nc3ccc(O[C@@H]4O[C@H](CO)[C@H](O)[C@H](O)[C@H]4O)cc3oc-2c1 [resorufin beta-D-galactopyranoside] | 408 ± 140 | 
horseradish peroxidase (Armoracia rusticana) (protein) QLTPTFYDNSCPNVSNIVRDTIVNELRSDPRIAASILRLHFHDCFVNGCDASILLDNTTSFRTEKDAFGNANSARGFPVIDRMKAAVESACPRTVSCADLLTIAAQQSVTLAGGPSWRVPLGRRDSLQAFLDLANANLPAPFFTLPQLKDSFRNVGLNRSSDLVALSGGHTFGKNQCRFIMDRLYNFSNTGLPDPTLNTTYLQTLRGLCPLNGNLSALVDFDLRTPTIFDNKYYVNLEEQKGLIQSDQELFSSPNATDTIPLVRSFANSTQTFFNAFVEAMDRMGNITPLTGTQGQIRLNCRVVNSNS |  | 20 ± 1.8
